Data published in US10590143B2, “Herbicidally active (alkynyl-phenyl)-substituted cyclic dione compounds and derivatives thereof” (Syngenta Limited, priority 2013, dated 2020).
Where two headings read alike, the source gives them in different places.

Columns and labels:
Experiment in all cases: Biological Example 1 glasshouse assay for herbicidal activity
Assay type in all cases: in vivo
[1] = tested on: Abutilon theophrasti (ABUTH); details: 312 h, 13 days after application, read-out: percentage phytotoxicity ABUTH
Procedure, shortened: (§1)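 Sow seeds in pots of standard sandy soil; grow in glasshouse (24/16 °C, 14 h light, 65% humidity). Spray herbicide in acetone/water with 0.5% Tween 20 at day 1 or day 8. Water twice daily and score damage visually at 13 days.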

[2] = tested on: Alopecurus myosuroides (ALOMY); details: 312 h, 13 days after application, read-out: percentage phytotoxicity ALOMY
Procedure, shortened: as §1

[3] = tested on: Amaranthus retroflexus (AMARE); details: 13 days after application; for pest or weed control at 8 g/ha / pest or weed control at 250 g/ha / pest or weed control at 30 g/ha: Amaranthus retroflexus, 312 h, read-out: percentage phytotoxicity AMARE
Procedure, shortened: as §1

[4] = tested on: Echinochloa crus-galli (ECHCG); details: 13 days after application; for pest or weed control at 30 g/ha / pest or weed control at 250 g/ha: Echinochloa crus-galli, 312 h, read-out: percentage phytotoxicity ECHCG; for pest or weed control at 250 g/ha / percentage phytotoxicity ECHCG: 250 g/ha
Procedure, shortened: as §1

Setaria faberi (SETFA) = details: 312 h, 13 days after application, read-out: percentage phytotoxicity SETFA
Procedure, shortened: as §1

[5] = tested on: Zea mays (ZEAMX, corn, maize, e.g. volunteer corn); details: 13 days after application; for pest or weed control at 8 g/ha / pest or weed control at 30 g/ha / pest or weed control at 250 g/ha: Zea mays, 312 h, read-out: percentage phytotoxicity ZEAMX; for pest or weed control at 250 g/ha / percentage phytotoxicity ZEAMX: 250 g/ha
Procedure, shortened: as §1

[6] = post-emergence, post-emergence, 250 g/ha
[7] = pre-emergence, pre-emergence, 250 g/ha

Row | Structure (SMILES) | pest or weed control at 30 g/ha ([1]; pre-emergence, pre-emergence) [%] | pest or weed control at 30 g/ha ([2]; post-emergence) [%] | pest or weed control at 250 g/ha ([2]; post-emergence) [%] | pest or weed control at 30 g/ha ([2]; pre-emergence) [%] | pest or weed control at 250 g/ha ([2]; pre-emergence) [%] | pest or weed control at 250 g/ha [3, 6] [%] | pest or weed control at 30 g/ha ([3]; pre-emergence, pre-emergence) [%] | pest or weed control at 250 g/ha [3, 7] [%] | pest or weed control at 30 g/ha ([4]; post-emergence, post-emergence) [%] | pest or weed control at 250 g/ha ([4]; post-emergence, post-emergence) [%] | pest or weed control at 250 g/ha ([4]; pre-emergence, pre-emergence) [%] | pest or weed control at 250 g/ha (Setaria faberi (SETFA); post-emergence, post-emergence) [%] | pest or weed control at 250 g/ha (Setaria faberi (SETFA); pre-emergence, pre-emergence) [%] | pest or weed control at 30 g/ha ([5]; post-emergence, post-emergence) [%] | pest or weed control at 250 g/ha ([5]; post-emergence, post-emergence) [%] | pest or weed control at 30 g/ha ([5]; pre-emergence, pre-emergence) [%] | pest or weed control at 250 g/ha ([5]; pre-emergence, pre-emergence) [%] | pest or weed control at 250 g/ha ([1]; post-emergence, post-emergence) [%] | pest or weed control at 250 g/ha ([1]; pre-emergence, pre-emergence) [%] | pest or weed control at 30 g/ha ([4]; pre-emergence, pre-emergence) [%] | further results
1 | CC#Cc1cc(F)c(C2C(=O)C3CCC(C3)C2=O)c(OC)c1 (stereo not shown) [Compound A1, 3-(2-Fluoro-6-methoxy-4-prop-1-ynyl-phenyl)-bicyclo[3.2.1]octane-2,4-dione] | 0 | 100 | 100 | 100 | 100 | 30 | 0 | 20 | 100 | 100 | 100 | 100 | 100 | 100 | 100 | 100 | 100 |  |  |  | pest or weed control at 8 g/ha ([1]; post-emergence, post-emergence): 0%; pest or weed control at 8 g/ha ([1]; pre-emergence, pre-emergence): 0%; pest or weed control at 8 g/ha ([2]; post-emergence): 80%; pest or weed control at 8 g/ha ([2]; pre-emergence): 70%; pest or weed control at 8 g/ha ([3]; post-emergence, post-emergence): 0%; pest or weed control at 8 g/ha ([3]; pre-emergence, pre-emergence): 0%; percentage phytotoxicity AMARE ([3]; post-emergence, 250 g/ha): 30%; percentage phytotoxicity ECHCG ([4]; post-emergence): 100%; percentage phytotoxicity ECHCG ([4]; pre-emergence): 100%; pest or weed control at 8 g/ha (Setaria faberi (SETFA); pre-emergence, pre-emergence, 8 g/ha): 50%; pest or weed control at 8 g/ha ([5]; post-emergence, post-emergence): 100%; pest or weed control at 8 g/ha ([5]; pre-emergence, pre-emergence): 60%; percentage phytotoxicity ZEAMX ([5]; post-emergence): 100%; percentage phytotoxicity ZEAMX ([5]; pre-emergence): 100%
2 | CC#Cc1cc(F)c(C2C(=O)C3CCC(C)(C2=O)C3(C)C)c(OC)c1 (stereo not shown) [Compound A2] | 60 | 80 | 90 | 70 | 90 | 0 | 10 | 40 | 100 | 100 | 100 | 90 | 100 | 100 | 100 | 60 | 100 | 0 | 60 | 90 | pest or weed control at 30 g/ha ([1]; post-emergence, post-emergence): 0%; pest or weed control at 30 g/ha ([3]; post-emergence, post-emergence): 0%; pest or weed control at 30 g/ha (Setaria faberi (SETFA); post-emergence, post-emergence): 90%; pest or weed control at 30 g/ha (Setaria faberi (SETFA); pre-emergence, pre-emergence): 70%
3 | CC#Cc1cc(F)c(C2C(=O)C3CCC(C3)C2=O)c(OC(F)F)c1 (stereo not shown) [Compound A7] | 20 | 60 | 90 | 60 | 100 | 60 | 40 | 70 | 90 | 100 | 100 | 90 | 70 | 80 | 100 | 80 | 100 | 70 | 30 | 60 | pest or weed control at 30 g/ha ([1]; post-emergence, post-emergence): 0%; pest or weed control at 30 g/ha ([3]; post-emergence, post-emergence): 50%; pest or weed control at 30 g/ha (Setaria faberi (SETFA); post-emergence, post-emergence): 70%; pest or weed control at 30 g/ha (Setaria faberi (SETFA); pre-emergence, pre-emergence): 50%
4 | COc1cc(C#CCl)cc(F)c1C1C(=O)C2CCC(C2)C1=O (stereo not shown) [Compound A8, 3-[4-(2-chloroethynyl)-2-fluoro-6-methoxy-phenyl]bicyclo[3.2.1]octane-2,4-dione] | 10 |  | 70 | 40 | 60 | 10 | 50 | 40 |  | 70 | 60 | 70 | 60 |  | 50 | 60 | 70 | 0 | 0 | 30 | pest or weed control at 30 g/ha (Setaria faberi (SETFA); pre-emergence, pre-emergence): 60%
